In patent US20090087497A1, “Compositions and methods for treating symptoms of aging” (Burnham Institute for Medical Research, priority 2007, published 2009):

What was measured:
Drosophila melanogaster = test: Screen of individual and combined compounds on age-related physiological parameters (maximal heart rate and exercise capacity); assay type: in vivo; conditions: separate study of the five best combinations with larger number of flies; FIG. 3
From the text: The first dataset of combined interventions. We performed an initial screen of compounds for their effects on cardiac aging in Drosophila, selected for their very general effects on multiple biological functions, known low toxicity and, for some, known effects on aging in other models (Wood et al., Nature 430:686-689, 2004).
After screening 44 compounds individually at multiple doses (a total of 300 groups, each composed of 10-20 flies), we chose two doses each of four compounds for more comprehensive measurements of their combined effects on three age-related phenotypes: maximal heart rate and exercise capacity declines with age and survival. […]

mice = conditions: 2 mg/ml in the drinking water, chronic; cited from earlier work
flies = test: Development of flies under doxycycline; assay type: in vivo, Drosophila

| effect on development in flies (flies) | SMILES | functional improvement confirmed in additional tests (climbing velocity and maximal heart rate) (Drosophila melanogaster) | effect on body weight (mice) | plasma levels (mice) |
| --- | --- | --- | --- | --- |
| – | Oc1ccc(C=Cc2cc(O)cc(O)c2)cc1 [resveratrol] | not | – | – |
| slows development | C[C@H]1c2cccc(O)c2C(=O)C2=C(O)[C@]3(O)C(=O)C(C(N)=O)=C(O)[C@@H](N(C)C)[C@@H]3[C@@H](O)[C@@H]21 [doxycycline] | – | no effect | close to saturation |
